Source: article PMC12670396, “Crizotinib- or Ceritinib-Conjugated Platinum(IV) Prodrugs As Potent Multiaction Agents Inducing Antiproliferative Effects in 2D and 3D Cancer Cell Models” (Journal of Medicinal Chemistry, 2025)

How the values were obtained:
CT26 and NCI-H2228 cells = assay: Extracellular HMGB1 (ELISA); type: cell-based; settings: IC50 concentrations, 24 h
Experimental: The amount of HMGB1 in the medium was determined using an enzyme-linked immunosorbent assay (ELISA).
CT26 and NCI-H2228 cells were seeded in 48-well plates at a density of 5 × 10^4 cells/well and grown overnight. […] Aliquots of the supernatants were then withdrawn and processed using the HMGB1 Express ELISA kit (TECAN) according to the manufacturer’s instructions. The final absorbance, proportional to the HMGB1 amount, was read at 420 nm using a multimode SPARK reader (TECAN).

CT26 cell line = assay: MTT cytotoxic/antiproliferative activity, 72 h; type: cell-based, murine; settings: Mus musculus
MMC2 = assay: MTT cytotoxicity in NER-deficient cells, 72 h; type: cell-based, Chinese hamster
From the text: The cytotoxicity assay was also employed to determine whether DNA damage might be involved in the mechanism of action of the tested compounds. The Chinese hamster ovary MMC2 cell line harbors the ERCC3/XPB mutation, which renders it deficient in nucleotide excision repair (NER), whereas the parent line CHOK1 is proficient in this repair process. Thus, the MMC2 line is often more sensitive to agents causing DNA damage, especially NER-reparable DNA damage, than CHOK1. […] Phosphorylation of H2AX is a commonly used marker of DNA damage. […]

NCI-H2228 = assay: MTT cytotoxic/antiproliferative activity, 72 h; type: cell-based, human; settings: Homo sapiens; NCI-H2228, MTT, 72 h
ALK = target: T1, ALK (Homo sapiens, UniProt Q9HC35+Q9UM73); assay: Western blot of ALK phosphorylation state; type: cell-based; settings: NCI-H2228 lysates, IC50 concentrations, 24 h
T1 construct: Western blot detection of the ALK phosphorylation state in lysates of NCI-H2228 cells exposed to the tested compounds; endogenous in cells; host or cells: NCI-H2228
T1 sequence (Q9HC35+Q9UM73 fused): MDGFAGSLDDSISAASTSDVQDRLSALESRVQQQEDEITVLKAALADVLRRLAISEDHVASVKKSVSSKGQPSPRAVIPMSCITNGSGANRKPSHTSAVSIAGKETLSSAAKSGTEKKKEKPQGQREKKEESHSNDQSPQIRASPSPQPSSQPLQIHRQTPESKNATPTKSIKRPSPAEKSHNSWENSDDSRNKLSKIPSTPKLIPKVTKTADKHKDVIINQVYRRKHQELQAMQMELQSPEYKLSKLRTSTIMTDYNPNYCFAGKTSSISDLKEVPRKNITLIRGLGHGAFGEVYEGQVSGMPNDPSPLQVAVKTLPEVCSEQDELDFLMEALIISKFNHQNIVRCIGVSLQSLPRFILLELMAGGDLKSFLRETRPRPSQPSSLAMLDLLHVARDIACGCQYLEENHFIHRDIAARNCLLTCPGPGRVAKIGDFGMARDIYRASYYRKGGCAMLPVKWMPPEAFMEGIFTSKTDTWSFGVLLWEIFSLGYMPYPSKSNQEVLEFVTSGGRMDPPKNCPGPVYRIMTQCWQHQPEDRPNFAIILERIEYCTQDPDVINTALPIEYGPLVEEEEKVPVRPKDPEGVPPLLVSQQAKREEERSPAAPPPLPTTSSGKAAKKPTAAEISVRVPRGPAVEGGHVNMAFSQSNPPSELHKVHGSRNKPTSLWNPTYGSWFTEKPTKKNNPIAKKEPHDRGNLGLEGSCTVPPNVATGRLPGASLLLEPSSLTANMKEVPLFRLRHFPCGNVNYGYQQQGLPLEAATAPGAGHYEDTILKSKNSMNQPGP
Experimental: (§1) Whereas the signals of pALK and pMET are decreased in the presence of the tested compounds, the overall amount of ALK and MET is not markedly changed.
(§2) NCI-H2228 cells were seeded in 6-well plates at a density of 2 × 10^5 cells/well and incubated overnight. […] The cells were then harvested and lysed using RIPA lysis buffer supplemented with protease and phosphatase inhibitors as recommended by the manufacturer. Protein extracts were resolved with SDS-PAGE, transferred to a PVDF membrane, and the respective proteins were detected with specific antibodies (anti-phosphoALK, anti-ALK, anti-phosphoMET, anti-MET, and anti-GADPH) and HRP-conjugated secondary antibodies. The signals were obtained with SignalFire ECL Reagent and recorded with an Amersham680 reader.

[1] = test system: panel of six cancer cell lines; assay: MTT, panel of six cancer cell lines (average, ranges); type: cell-based, human; settings: Homo sapiens; average over six cancer cell lines; read-out: av cancer (average IC50 in cancer cells)
Experimental: (§3) A panel of six cancer cell lines was used to evaluate the cytotoxic potential of the investigated compounds.
(§4) Cytotoxicity in hepatocyte-like cells (HLC). STEMdiff Hepatocyte Kit was used to generate HLC from human pluripotent stem cells. Cytotoxicity of several of the tested compounds in HLC was evaluated using the sulphorhodamine B assay.

[2] = Cytotoxicity in hepatocyte-like cells, sulphorhodamine B assay; type: cell-based; settings: hepatocyte-like cells from human pluripotent cells
Experimental: (§5) Growth inhibition activity in cancer cell lines was compared with the activity to inhibit the proliferation of normal (noncancerous) cells, namely MRC-5, IMR-90, hTERT-HPNE, and MCF10A cells. Selectivity indexes (SI) were calculated as (IC50 in noncancerous cells)/(average IC50 in cancer cells). […] We further assessed the toxicity of several of the compounds in hepatocyte-like cells (HLC) generated from human pluripotent cells.
as §4

MDA-MB-231 = assay: MTT cytotoxic/antiproliferative activity, 72 h; type: cell-based, human; settings: Homo sapiens; MDA-MB-231, MTT, 72 h
MCF10A = assay: MTT cytotoxicity in noncancerous cells, 72 h; type: cell-based, human; settings: Homo sapiens, MCF-10A
Experimental: as §5, §4

MRC-5 = assay: MTT cytotoxicity in noncancerous cells, 72 h; type: cell-based, human; settings: Homo sapiens, MRC5, MRC-5, MTT
Experimental: as §5, §4

hTERT-HPNE = assay: MTT cytotoxicity in noncancerous cells, 72 h; type: cell-based, human; settings: Homo sapiens
Experimental: as §5, §4

IMR-90 = assay: MTT cytotoxicity in noncancerous cells, 72 h; type: cell-based, human; settings: Homo sapiens, IMR-90, MTT
Experimental: as §5, §4

U87-MG = assay: MTT cytotoxic/antiproliferative activity, 72 h; type: cell-based, human; settings: Homo sapiens, U-87 MG, MTT, 72 h
Experimental: as §3, §4

[3] = test system: normal (noncancerous) cells MRC-5, IMR-90, hTERT-HPNE, MCF10A; assay: MTT, noncancerous cell lines (average, selectivity index); type: cell-based, human
Experimental: as §5, with “pluripotent cells. […]” for “pluripotent cells.”

HCT116 = assay: MTT cytotoxic/antiproliferative activity, 72 h; type: cell-based, human; settings: Homo sapiens, HCT-116; HCT116, MTT, 72 h
CHOK1 = assay: MTT cytotoxicity in NER-proficient cells, 72 h; type: cell-based, Chinese hamster; settings: Cricetulus griseus, CHO-K1
From the text: The cytotoxicity assay was also employed to determine whether DNA damage might be involved in the mechanism of action of the tested compounds. The Chinese hamster ovary MMC2 cell line harbors the ERCC3/XPB mutation, which renders it deficient in nucleotide excision repair (NER), whereas the parent line CHOK1 is proficient in this repair process. Thus, the MMC2 line is often more sensitive to agents causing DNA damage, especially NER-reparable DNA damage, than CHOK1. […] Phosphorylation of H2AX is a commonly used marker of DNA damage.
as §4

MET = target: T2, MET (Homo sapiens, UniProt P08581); assay: Western blot of MET phosphorylation state; type: cell-based; settings: NCI-H2228 lysates, IC50 concentrations, 24 h
T2 construct: Western blot analysis of the phosphorylation state of ALK and MET; endogenous in cells; host or cells: NCI-H2228
T2 sequence (P08581 25-1390): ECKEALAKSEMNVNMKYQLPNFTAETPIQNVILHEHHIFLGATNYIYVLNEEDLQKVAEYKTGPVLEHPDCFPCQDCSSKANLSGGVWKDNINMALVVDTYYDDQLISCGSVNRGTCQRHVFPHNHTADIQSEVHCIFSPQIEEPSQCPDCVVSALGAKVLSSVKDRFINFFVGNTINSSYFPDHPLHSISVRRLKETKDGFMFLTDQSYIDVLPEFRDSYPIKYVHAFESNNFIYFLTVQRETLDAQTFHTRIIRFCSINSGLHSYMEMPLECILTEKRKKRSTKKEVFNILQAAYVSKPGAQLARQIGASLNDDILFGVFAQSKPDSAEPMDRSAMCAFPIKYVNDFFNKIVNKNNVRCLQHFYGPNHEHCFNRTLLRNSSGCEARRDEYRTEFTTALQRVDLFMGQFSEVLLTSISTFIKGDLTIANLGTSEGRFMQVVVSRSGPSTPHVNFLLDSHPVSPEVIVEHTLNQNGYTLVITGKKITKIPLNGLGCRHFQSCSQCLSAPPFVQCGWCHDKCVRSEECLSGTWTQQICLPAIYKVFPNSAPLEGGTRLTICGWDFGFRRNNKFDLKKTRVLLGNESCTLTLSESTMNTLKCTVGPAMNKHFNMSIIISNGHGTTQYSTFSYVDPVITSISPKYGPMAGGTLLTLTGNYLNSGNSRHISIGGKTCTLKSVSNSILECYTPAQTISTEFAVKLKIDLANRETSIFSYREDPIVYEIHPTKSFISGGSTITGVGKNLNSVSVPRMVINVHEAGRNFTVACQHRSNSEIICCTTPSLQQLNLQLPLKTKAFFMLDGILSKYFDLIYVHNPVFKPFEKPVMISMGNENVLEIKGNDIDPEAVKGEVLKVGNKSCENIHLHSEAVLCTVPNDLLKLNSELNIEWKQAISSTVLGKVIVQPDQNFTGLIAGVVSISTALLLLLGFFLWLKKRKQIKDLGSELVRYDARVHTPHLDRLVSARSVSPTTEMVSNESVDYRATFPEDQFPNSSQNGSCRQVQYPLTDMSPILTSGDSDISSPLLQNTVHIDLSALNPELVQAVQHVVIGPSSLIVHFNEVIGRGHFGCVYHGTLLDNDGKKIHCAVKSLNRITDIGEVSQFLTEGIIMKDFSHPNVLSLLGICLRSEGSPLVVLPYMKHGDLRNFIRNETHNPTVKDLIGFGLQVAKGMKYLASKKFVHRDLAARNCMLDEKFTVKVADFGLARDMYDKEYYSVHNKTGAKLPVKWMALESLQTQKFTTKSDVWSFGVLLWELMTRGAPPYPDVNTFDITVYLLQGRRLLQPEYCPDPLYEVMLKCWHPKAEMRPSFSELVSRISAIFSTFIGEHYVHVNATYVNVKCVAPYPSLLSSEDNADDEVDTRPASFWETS
Experimental: as §1, §2

A549 = assay: MTT cytotoxic/antiproliferative activity, 72 h; type: cell-based, human; settings: Homo sapiens; A549, MTT, 72 h
A549 spheroids = assay: Cytotoxicity in 3D spheroids, CellTiter-Glo 3D; type: cell-based, human; settings: Homo sapiens, A549 3D spheroids, 96 h
Experimental: (§6) In the 3D structure, the gradients of gases, nutrients, and therapeutics play a role in the final cytotoxicity of a compound.
(§7) A549 and NCI-H2228 cells were seeded in ultralow attachment, U-shape plates (Corning) at a density of 800 cells/well in the tumorsphere medium consisting of DMEM/F12 medium (Sigma), fibroblast growth factor (20 ng/mL; Sigma), epidermal growth factor 2 (10 ng mL^–1; Sigma), B27 supplement (1×; Gibco), bovine serum albumin, bovine serum albumin (BSA) (1.5 mg mL^–1; Sigma). […] CellTiter-Glo 3D viability assay was used for the experiment evaluation following the manufacturer’s instructions. The bioluminescence signal, proportional to the number of living cells, was measured using the luminescence reader SPARK, and IC50 values were calculated.

NCI-H2228 spheroids = assay: Cytotoxicity in 3D spheroids, CellTiter-Glo 3D; type: cell-based, human; settings: Homo sapiens, NCI-H2228 3D spheroids, 96 h
Experimental: as §6, §7

RD = assay: MTT cytotoxic/antiproliferative activity, 72 h; type: cell-based, human; settings: Homo sapiens, MTT, 72 h

**Q.** For COc1cccc2c1C(=O)c1c(O)c3c(c(O)c1C2=O)C[C@@](O)(C(=O)CO)C[C@@H]3O[C@H]1C[C@H](N)[C@H](O)[C@H](C)O1 [DOX, doxorubicin], which “HMGB1 externalization relative to nontreated control” value (CT26 and NCI-H2228 cells) is on record?
**A.** highest increase

**Q.** What about the IC50 (CT26 cell line) of the same compound?
**A.** 2100 ± 300 nM

**Q.** Which IC50 (MMC2; Cricetulus griseus, MMC2 (NER deficient), MTT, 72 h) does the source give for Cc1cc(Nc2ncc(Cl)c(Nc3ccccc3S(=O)(=O)C(C)C)n2)c(OC(C)C)cc1C1CCNCC1 [compound 5, ceritinib] here?
**A.** 1300 ± 300 nM

**Q.** What about the “Index F” value (MMC2; IC50(CHOK1)/IC50(MMC2)) of the same compound?
**A.** 1.08

**Q.** What about the IC50 (NCI-H2228) of the same compound?
**A.** 510 ± 40 nM

**Q.** And the “phosphorylation of ALK” value (ALK)?
**A.** inhibit the phosphorylation

**Q.** What about the IC50 [1] of the same compound?
**A.** 1100 nM

**Q.** What about the IC50 [2] of the same compound?
**A.** 8 ± 3 µM

**Q.** And the IC50 (MDA-MB-231)?
**A.** 1400 ± 900 nM

**Q.** And the IC50 (MCF10A)?
**A.** 3.4 ± 0.9 µM

**Q.** And the IC50 (MRC-5)?
**A.** 2200 ± 500 nM

**Q.** And the IC50 (hTERT-HPNE)?
**A.** 4.1 ± 0.2 µM

**Q.** What about the IC50 (IMR-90) of the same compound?
**A.** 3.7 ± 0.4 µM

**Q.** What about the IC50 (U87-MG) of the same compound?
**A.** 1100 ± 1000 nM

**Q.** What about the IC50 ([3]; Homo sapiens, average over MRC-5, IMR-90, hTERT-HPNE, MCF10A, read-out: av norm (average IC50 in noncancerous cells)) of the same compound?
**A.** 3.4 µM

**Q.** What about the “SI, selectivity index” value ([3]; IC50(normal cells)/averageIC50(cancer cells)) of the same compound?
**A.** 3.0

**Q.** And the IC50 (HCT116)?
**A.** 900 ± 200 nM

**Q.** What about the IC50 (CHOK1) of the same compound?
**A.** 1400 ± 600 nM

**Q.** And the “phosphorylation of MET” value (MET)?
**A.** inhibit the phosphorylation

**Q.** What about the IC50 (A549) of the same compound?
**A.** 900 ± 200 nM

**Q.** What about the IC50 (A549 spheroids) of the same compound?
**A.** 2300 ± 800 nM

**Q.** And the IC50 (NCI-H2228 spheroids)?
**A.** 750 ± 90 nM

**Q.** What about the IC50 (CT26 cell line) of the same compound?
**A.** 1200 ± 300 nM

**Q.** What about the IC50 (RD) of the same compound?
**A.** 1500 ± 300 nM
